Test system: cystic lymphangioma of PDGFRβ knockout mice
Experiment: Therapy experiment in cystic lymphangioma of PDGFRβ knockout mice (diameter of LYVE1-positive lymph vessels)
Assay type: in vivo, mouse
Conditions: intraperitoneal three times a week (Erlotinib 50 mg/kg; antibody 5 μg/body), compared with the group of PDGFRβ knockout mice without treatment
Description: To PDGFRβ knockout mice, a neutralizing antibody against amphiregulin (AF989, R&D Systems Inc.) and Erlotinib having EGFR inhibitory activity (Selleck Biotech) were administered for the purpose of treating cystic lymphangioma. The neutralizing antibody against amphiregulin was dissolved in PBS at 25 μg/mL and administered intraperitoneally at 5 μg/body three times a week. Erlotinib was dissolved in DMSO at 50 mg/mL and administered intraperitoneally at 50 mg/kg three times a week. A group of PDGFRβ knockout mice without treatment and a control group of mice in which PDGFRβ was not knocked out were also prepared.
The tissues of PDGFRβ knockout mice were fixed with paraformaldehyde (PFA). Paraffin sections were prepared using fixed samples. The tissue sections were washed with a buffer and antigen-retrieved by heating in a microwave oven for 5 minutes using a commercial retrieval solution. Next, each sample was washed with a buffer solution and the tissues or the cells were subjected to a commercial blocking solution (room temperature, one hour).
Next, each sample was washed with a buffer and subjected to an anti-LYVE1 antibody (Abcam, a primary antibody) at optimum concentration (4° C., overnight). […] The obtained sample was observed and photographed with a fluorescence microscope.
The diameter of each lymph vessel was measured with ImageJ imaging software based on the photographed images. […]

Compound: C#Cc1cccc(Nc2ncnc3cc(OCCOC)c(OCCOC)cc23)c1 [Erlotinib]
- diameter of dilated lymph vessels: significantly reduced
